These are literature values, as cited in patent publication US20200330542A1, “COMPOSITION FOR THE ACUTE AND CHRONIC TREATMENT OF CONSTIPATION” (NEILOS S.R.L., priority 2017, published 2020).

For this data set the following is noted: human, in vivo.

Consider glucomannan, for which the tolerability result is recorded as “well tolerated without significant side effects”.
